We go through one compound from US20120010206A1, “IMIDAZOLOPYRIDINE COMPOUNDS USEFUL FOR THE TREATMENT OF DEGENERATIVE AND INFLAMMATORY DISEASES” (priority 2006, published 2012).

This experiment has as its system MMP1 expression by complex trigger activated SFs. Description: MMP assay: MMP1 expression (ELISA) by SFs activated with the 'complex trigger'. Type of experiment: cell-based. As to conditions: Homo sapiens; SFs activated with supernatant of TNF-α-treated THP-1 cells (complex trigger), 48 hrs, FIG. 3; read-out: IC50 of reduction of MMP1 expression by SFs. As for the experimental part: A 384-well format ELISA for measurement of MMP1 is developed. Various primary antibodies are tested, as well as various ELISA protocols. The following protocol is developed and validated to measure MMP1 levels in SF supernatant in 384 well plates: white Lumitrac 600 384 well plates (Greiner) are coated with 2 μg/mL anti-MMP1 antibody MAB1346 (Chemicon). The antibody is diluted in buffer 40 (1.21 g Tris base (Sigma), 0.58 g NaCl (Calbiochem) and 5 mL 10% NaN3 (Sigma) in 1 L milliQ water and adjusted to pH 8.5). After overnight incubation at 4° C., plates are washed with PBS (80 g NaCl, 2 g KCl (Sigma), 11.5 g Na2HPO4.7H2O and 2 g KH2PO4 in 10 L milliQ; pH 7.4) and blocked with 100 μL/well Casein buffer (2% Casein (VWR International) in PBS). Next day, casein buffer is removed from ELISA plates and replaced by 50 μL/well EC buffer (4 g casein, 2.13 g Na2HPO4 (Sigma), 2 g bovine albumin (Sigma), 0.69 g NaH2PO4.H2O (Sigma), 0.5 g CHAPS (Roche), 23.3 g NaCl, 4 mL 0.5 M EDTA pH 8 (Invitrogen), 5 mL 10% NaN3 in 1 L milliQ and adjusted to pH 7.0). 0.25 mM DTT (Sigma) is added to the thawed sample plates. After removal of the EC buffer, 20 μL of sample is transferred to the ELISA plates. […] Readout is performed on the Luminoscan Ascent Luminometer (Labsystems) with an integration time of 200 msec or with an Envision reader (Perkin Elmer). […]
(In general: ELISA stands for enzyme-linked immunosorbent assay.)

Broadly, the IC50 is the concentration that inhibits the measured activity by half. As to `C[C@@H]1C[C@H]2[C@@H]3CCC4=CC(=O)C=C[C@]4(C)[C@@]3(F)[C@@H](O)C[C@]2(C)[C@@]1(O)C(=O)CO` [dexamethasone], the IC50 is roughly 1 nM.
